Here are results for 98 compounds from PubChem BioAssay AID1117319 (Southern Research Institute, 2015).

The structures appear in SMILES notation. Records with an inconclusive call do not appear.

The test addresses Virion infectivity factor (Human immunodeficiency virus type 1 group M subtype B (isolate BH10)) + Virion infectivity factor (Human immunodeficiency virus type 1 group M subtype B (isolate BRU/LAI)) + Virion infectivity factor (Human immunodeficiency virus type 1 group M subtype B (isolate PCV12)) + Virion infectivity factor (Human immunodeficiency virus type 1 group M subtype B (isolate HXB2)) + DNA dC->dU-editing enzyme APOBEC-3G (Homo sapiens) (UniProt P69720+P69721+P69722+P69723+Q9HC16). The test is described as follows: inhibitors of Vif binding to APOBEC3G peptide, primary screen, biochemical, TR-FRET, GST-Vif 1-94, biotin-A3G peptide, dose response retest (AID 1117319).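 Further: Vif residues 1-94 fused to GST binding biotinylated APOBEC3G peptide 110-148.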
For `Cc1cc(C(=O)CN2C(=O)c3ccccc3S2(=O)=O)c(C)n1CC1CCCO1` (stereo not drawn), the IC50 is 51.2 µM.
For the compound `CC(C)C(C(=O)O)N1C(=O)/C(=C/C=C/c2ccco2)SC1=S` (stereo not drawn), the IC50 is 0.36 µM.
As to `CC1(C)CC(Nc2ccc(Nc3ccccc3)cc2)CC(C)(C)N1`, the 50% inhibitory concentration (IC50) was 7.13 µM.
With `O=c1cc(-c2ccccc2Cl)c2c([nH]1)CCC2`, the IC50 was 4.31 µM.
To `COc1ccc(/C=N/NC(=O)c2cc(O)c(O)c(O)c2)cc1Cn1cc([N+](=O)[O-])cn1` belongs 1.07 µM.
In the case of `Cc1nc2nc(C)c(CCC(=O)N3CCN(c4ccccc4)CC3)c(C)n2n1`, the IC50 was 59.5 µM.
Turning to `CN1CCN(c2ccc(N)cc2)CC1`, the IC50 is 15.6 µM.
To `CCOC(=O)C(C(=O)OCC)c1cc(Br)c2noc3c2c1C(=O)c1ccccc1-3` belongs 2.45 µM; to `CCN(CC)C(=O)c1ccc2c(c1)C1C=CCC1C(C(=O)O)N2` (stereo not drawn), 2.81 µM; to `CCOc1cccc(=O)c2c(C)n(CC(=O)c3ccccc3)c(C)c12`, 8.28 µM.
In the case of `O=c1[nH]nc(CNc2ccc(O)cc2)c2ccccc12` it was 3.45 µM; in that of `COc1cc(C(=O)NCc2nnc(SCC(=O)Nc3nc4ccc(C)cc4s3)o2)cc(OC)c1OC`, 45.3 µM.
As to `Cc1[nH]c2ccccc2c1C1=CC(=O)C=CC1=O`, the IC50 was 4.25 µM.
Take `CCOC(=O)NC1(NC2CCCCC2)Oc2ccccc2O1`: the half-inhibitory concentration (IC50) was 7.31 µM.
`O=C(CCS(=O)(=O)c1ccc(Br)cc1)NCCc1ccccc1`: the IC50 was 28.9 µM.
For the compound `CC(=O)c1sc2nc(-c3ccco3)ccc2c1N`, the IC50 was 2.78 µM.
On to `COc1ccc(CN2C(=O)NC(=O)/C(=C/c3ccc([N+](=O)[O-])o3)C2=O)cc1`, for which the 50% inhibitory concentration (IC50) is 4.49 µM.
Regarding `Cc1nn(-c2ccccn2)c2c1C(=O)C(Br)CC2` (stereo not drawn), the IC50 was 3.41 µM.
With `O=C(Nc1ccc(F)cc1)C(c1ccccc1)N1CCN(S(=O)(=O)c2ccc3ccccc3c2)CC1` (stereo not drawn), the IC50 was 13.5 µM.
As for `Cc1ccc(N2C(=O)NC(=O)/C(=C\C=C\c3ccco3)C2=O)cc1`, the IC50 was 8.48 µM.
In the case of `Cc1cc(/C=C2\C(=O)NC(=O)N(c3cccc(F)c3)C2=O)c(C)n1-c1cc(C(=O)O)cc(C(=O)O)c1`, the IC50 was 10.2 µM.
As to `O=C1NC(=O)N(Cc2ccc(F)cc2)C(=O)/C1=C\C=C\c1ccco1`, the IC50 was 19.2 µM.
Take `COC1=C(Br)C(=O)c2nc(C)ccc2C1=O`: the 50% inhibitory concentration (IC50) was 13.6 µM.
To `COc1ccc2c3c(cccc13)N(C)N=C2C` belongs 4.23 µM; to `CC1=C/C(=N\OS(=O)(=O)c2ccccc2)C=CC1=O`, 16.7 µM; to `CN=c1scc(-c2cccs2)n1/N=C/c1ccc(O)c(O)c1O`, 1.95 µM.
For the compound `COc1ccccc1NC(=O)c1oc2ccc(C)cc2c1C`, the half-inhibitory concentration (IC50) was 98 µM.
Regarding `C[C@H]1c2cccc(O)c2C(O)=C2C(=O)[C@]3(O)C(O)=C(C(N)=O)C(=O)[C@@H](N(C)C)[C@@H]3[C@@H](O)[C@@H]21`, the IC50 is 13.6 µM.
For the compound `Cc1c(Cl)cccc1NS(=O)(=O)c1ccc2c(c1)C1C=CCC1C(c1ccc(C(=O)O)cc1)N2` (stereo not drawn), the IC50 was 2.54 µM.
In the case of `CCOC(=O)CNc1ccc2c(c1)OCO2` it was 2.46 µM; in that of `Cn1cccc1/C=C1\C(=O)NC(=O)N(Cc2ccccc2)C1=O`, 11.2 µM; in that of `NS(=O)(=O)c1ccc(N/N=C/c2ccc(O)c(O)c2O)c([N+](=O)[O-])c1`, 0.92 µM.
`COC/C=C/C1=CC2=CC(=O)C(C)(OC(=O)c3cnc4ccccc4n3)C(=O)C2=CN1c1ccccc1` (stereo not drawn): the half-inhibitory concentration (IC50) is 2.74 µM.
Consider `O=C(NCc1ccco1)c1cc(-c2cccc(Cl)c2)on1`, for which the IC50 was 36.9 µM.
On to `O=C(C1CCCO1)N1CCC2(CC1)OCCO2` (stereo not drawn), for which the concentration for half-maximal inhibition (IC50) is 1.39 µM.
Turning to `CC1C/C(=C/c2ccco2)C(=O)/C(=C/c2ccco2)C1` (stereo not drawn), the IC50 is 1.89 µM.
On to `Cc1ccc(C)c2[nH]c(=O)c(CN(Cc3ccc4c(c3)OCO4)Cc3nnnn3Cc3ccco3)cc12`, for which the IC50 is 12.4 µM.
As for `CC(C)N1C(=O)CC(Nc2ccc(N3CCOCC3)cc2)C1=O` (stereo not drawn), the IC50 is 2.9 µM.
To `Oc1ccc(NCc2cccc(OCc3ccccc3)c2)cc1` belongs 2.14 µM; to `COc1ccc(NC(=O)CC2Nc3cccc4cccc(c34)NC2=O)cc1` (stereo not drawn), 1.21 µM; to `Cn1cccc1/C=C1/C(=O)NC(=S)N(Cc2ccc(F)cc2)C1=O`, 1.24 µM.
`CCOC(=O)C1=C(Cc2ccc(Cl)cc2)C(=O)c2ccccc2C1=O`: the concentration for half-maximal inhibition (IC50) is 34.7 µM.
For the compound `Cn1cnnc1SC/C(O)=C(\C#N)c1nc2ccccc2[nH]1`, the IC50 is 19.7 µM.
`COc1ccc(N2CCN(C(=O)c3ccc(C)c(Cl)c3)CC2)cc1`: the IC50 was 42.2 µM.
For `O=C1/C(=C\c2ccco2)SC(=S)N1Cc1ccccc1`, the IC50 was 3.56 µM.
Consider `Cc1cc(/C=C2\SC(=S)NC2=O)c(C)n1C`, for which the IC50 was 36.2 µM.
For the compound `O=C(NCc1ccccc1)c1ccc2nc(-c3ccco3)c(-c3ccco3)nc2c1`, the IC50 was 0.48 µM.
Regarding `CCOc1ccc(NC(=O)CCS(=O)(=O)c2ccc(Br)cc2)cc1`, the half-inhibitory concentration (IC50) is 14.2 µM.
To `CC(C)CNC1=CC(=O)CC(c2ccco2)C1` (stereo not drawn) belongs 3.75 µM; to `O=C(/C=C/c1ccco1)N(c1ccccn1)c1ccccn1`, 3.05 µM.
For `COc1ccc(CN2C(=O)NC(=O)/C(=C/c3ccc([N+](=O)[O-])s3)C2=O)cc1`, the half-inhibitory concentration (IC50) is 14.5 µM.
For `CCn1c(SCC(=O)NCc2ccco2)nnc1-c1cccs1`, the half-inhibitory concentration (IC50) was 95.8 µM.
For the compound `CCOc1cccc(=O)c2c(C)n(Cc3ccco3)c(C)c12`, the IC50 was 0.45 µM.
Regarding `Cc1ccc(C(=O)Nc2ccc(O)c(C(=O)O)c2)o1`, the IC50 was 3.87 µM.
With `O=C(NNC(=O)c1ccccc1F)c1cccc(-n2cccc2)c1`, the IC50 was 8.55 µM.
Consider `Cc1ccc(C)n1-c1cccc(C(=O)O)c1`, for which the IC50 is 0.72 µM.
For the compound `O=C1CC(Nc2ccc(N3CCOCC3)cc2)C(=O)N1c1ccccc1F` (stereo not drawn), the concentration for half-maximal inhibition (IC50) is 1.65 µM.
Regarding `CCCc1cc(=O)oc2cc(C)c(CN3CCCC3)c(O)c12`, the half-maximal inhibitory concentration (IC50) is 3.46 µM.
With `O=C(NCCS(=O)CCNC(=O)C(F)(F)F)C(F)(F)F`, the IC50 is 95 µM.
Consider `Cc1ccc(N/N=C/c2c(C)c(C#N)c(=O)n(C)c2O)cc1C`, for which the half-inhibitory concentration (IC50) is 91.3 µM.
On to `CC1COCC(C)N1C1=C(Cl)C(=O)c2ccccc2C1=O` (stereo not drawn), for which the 50% inhibitory concentration (IC50) was 11 µM.
As for `O=C(O)c1cccc2cccc(-c3c4ccc(=O)c(O)c-4oc4c(O)c(O)ccc34)c12`, the IC50 is 0.53 µM.
`Cc1ccccc1-c1nc(CN2CCC(C(=O)N3CCN(c4ccccn4)CC3)CC2)c(C)o1`: the half-maximal inhibitory concentration (IC50) is 43.3 µM.
To `CC(N=Cc1cccc(O)c1O)c1ccccc1` (stereo not drawn) belongs 2.61 µM; to `Cc1ccc2c(c1C)NC(C(=O)O)C1CC=CC21` (stereo not drawn), 0.59 µM.
`O=C(O)c1cc(Nc2cc(Cl)c3nonc3c2[N+](=O)[O-])ccc1O`: the half-inhibitory concentration (IC50) is 57.6 µM.
Regarding `N#C/C(C(N)=O)=c1/ccc2c(c1)N1C3=C(CCCC3)CC3CCCCC31N=2` (stereo not drawn), the IC50 is 28.2 µM.
To `O=C(Nc1ccccc1N1CCCC1)c1ccc(Br)o1` belongs 46.2 µM; to `COc1cc(C(=O)NNC(=S)NCc2ccco2)cc(OC)c1OC`, 63.5 µM; to `O=C(CSc1ccccc1)N1CCN(c2ccccc2)CC1`, 67.4 µM.
In the case of `O=C(NCCO)c1ccc2nc(-c3ccco3)c(-c3ccco3)nc2c1` it was 0.88 µM; in that of `O=C(N/N=C/C=C\c1ccco1)c1cccnc1`, 4.09 µM; in that of `Cc1ccc(-n2c(-c3cc(-c4ccco4)[nH]n3)n[nH]c2=S)c(Br)c1`, 6.39 µM.
On to `CC(=O)Nc1ccc(S(=O)(=O)Nc2nc3ccccc3nc2Nc2ccc(N)cc2)cc1`, for which the IC50 was 0.62 µM.
As for `FC(F)(F)c1cc(-c2ccco2)nc(NCc2cccnc2)n1`, the 50% inhibitory concentration (IC50) is 42.3 µM.
Consider `CC1=C(C(=O)Nc2ccccc2F)C(c2ccsc2)C2=C(CC(c3ccccc3)CC2=O)N1` (stereo not drawn), for which the 50% inhibitory concentration (IC50) is 1.02 µM.
Consider `CCOc1ccccc1C(=O)NCC(=O)OCC(=O)NCCc1ccc(S(N)(=O)=O)cc1`, for which the IC50 is 75.8 µM.
Regarding `CCOC(=O)C1(C)NC(c2ccco2)C2C(=O)N(CC)C(=O)C21` (stereo not drawn), the half-inhibitory concentration (IC50) is 99.2 µM.
As for `CCN(CC)CCN1C(=O)c2ccccc2NC1c1ccc(N(C)C)cc1` (stereo not drawn), the IC50 is 90.1 µM.
In the case of `Cc1nc2ccccc2n2c(O)c(CC(=O)O)cc12` it was 30.2 µM.
With `Cc1ccc(C2C(C#N)=C(N)Oc3c2oc(CO)cc3=O)o1` (stereo not drawn), the IC50 was 2.04 µM.
Turning to `CC(C)CC(NC(=O)/C(=C/c1ccco1)NC(=O)c1ccc(Br)o1)C(=O)O` (stereo not drawn), the 50% inhibitory concentration (IC50) was 93.5 µM.
As to `CC(=O)Nc1ccc(NC(=O)CSCc2cnn(-c3ccccc3)c2-n2cccc2)cc1`, the IC50 was 25.9 µM.
On to `CC(C)(C)C(=O)OCc1nc(-c2ccc(O)c(O)c2)cs1`, for which the IC50 is 17.1 µM.
To `CNc1cccccc1=S` belongs 0.51 µM; to `CC1CCN(Cc2c(O)ccc3c2O/C(=C\c2ccco2)C3=O)CC1`, 3 µM; to `CCN(CC)c1ccc(NC(=O)CCS(=O)(=O)c2ccc(Br)cc2)c(C)c1`, 5.51 µM.
On to `CC1=CC2(O)OCCN(CCO)C2=CC1=O` (stereo not drawn), for which the 50% inhibitory concentration (IC50) is 7.05 µM.
`Cn1cnnc1SCC(=O)Nc1ncc([N+](=O)[O-])s1`: the IC50 was 36.1 µM.
For the compound `CC(/C=N/n1c(-c2ccncc2)n[nH]c1=S)=C\c1ccco1`, the IC50 was 5.1 µM.
As to `Oc1ccc(-c2cn3c(n2)SCC3)cc1O`, the 50% inhibitory concentration (IC50) is 1.11 µM.
To `Cc1cc(C(=O)CSc2nnc(-c3ccco3)o2)c(C)n1Cc1ccco1` belongs 1.97 µM; to `O=C(CCS(=O)(=O)c1ccc(Br)cc1)NC1CCCC1`, 20.5 µM; to `COc1cc(C2C(C(=O)c3ccco3)=C(O)C(=O)N2c2cc(C)on2)cc(Br)c1O` (stereo not drawn), 26.5 µM.
In the case of `COc1ccccc1/C=C(/CC(=O)NCc1ccccc1)c1nc2ccccc2s1`, the half-inhibitory concentration (IC50) was 45.3 µM.
In the case of `CN(CC(=O)Nc1c(Cl)cccc1Cl)C(=O)c1cccc(-n2cccc2)c1` it was 31.3 µM; in that of `O=C(/C(=N/N=C/c1ccc(O)c(O)c1O)c1ccccc1)c1ccccc1`, 3.15 µM.
Take `Cc1cc(C)c(S(=O)(=O)N2CCCCC2)c(C)c1N(C)S(=O)(=O)c1ccc(Cl)cc1`: the half-maximal inhibitory concentration (IC50) was 13.2 µM.

Usually IC50 stands for the concentration that inhibits the measured activity by half.
